Test: xn = mol fraction of the nth substance listed
Details: Liquid, Vibrating tube method

CCCCCCCCCC [decane] + CCCCCCCC
Details | mass density [kg/m3]
333.12 K, 16000 kPa, x2 = 0.2801 | 707.59
333.12 K, 17000 kPa, x2 = 0.0616 | 713.28
333.12 K, 17000 kPa, x2 = 0.2801 | 708.43
333.12 K, 18000 kPa, x2 = 0.0616 | 714.06
333.12 K, 18000 kPa, x2 = 0.2801 | 709.25
333.12 K, 19000 kPa, x2 = 0.0616 | 714.88
333.12 K, 19000 kPa, x2 = 0.2801 | 710.06
333.12 K, 20000 kPa, x2 = 0.0616 | 715.65
333.12 K, 20000 kPa, x2 = 0.2801 | 710.83
333.12 K, 21000 kPa, x2 = 0.0616 | 716.44
333.12 K, 21000 kPa, x2 = 0.2801 | 711.62
333.12 K, 22000 kPa, x2 = 0.0616 | 717.15
333.12 K, 22000 kPa, x2 = 0.2801 | 712.4
333.12 K, 23000 kPa, x2 = 0.0616 | 717.89
333.12 K, 23000 kPa, x2 = 0.2801 | 713.12
333.12 K, 24000 kPa, x2 = 0.0616 | 718.59
333.12 K, 24000 kPa, x2 = 0.2801 | 713.84
333.12 K, 25000 kPa, x2 = 0.0616 | 719.3
333.12 K, 25000 kPa, x2 = 0.2801 | 714.53
333.13 K, 1000 kPa, x2 = 0.5314 | 686.94
333.13 K, 1000 kPa, x2 = 0.9623 | 672.68
333.13 K, 2000 kPa, x2 = 0.5314 | 687.94
333.13 K, 2000 kPa, x2 = 0.9623 | 673.73
333.13 K, 3000 kPa, x2 = 0.5314 | 688.95
333.13 K, 3000 kPa, x2 = 0.9623 | 674.77
333.13 K, 4000 kPa, x2 = 0.5314 | 689.94
333.13 K, 4000 kPa, x2 = 0.9623 | 675.8
333.13 K, 5000 kPa, x2 = 0.5314 | 690.92
333.13 K, 5000 kPa, x2 = 0.9623 | 676.82
333.13 K, 6000 kPa, x2 = 0.5314 | 691.92
333.13 K, 6000 kPa, x2 = 0.9623 | 677.85
333.13 K, 7000 kPa, x2 = 0.5314 | 692.89
333.13 K, 7000 kPa, x2 = 0.9623 | 678.88
333.13 K, 8000 kPa, x2 = 0.5314 | 693.87
333.13 K, 8000 kPa, x2 = 0.9623 | 679.95
333.13 K, 9000 kPa, x2 = 0.5314 | 694.82
333.13 K, 9000 kPa, x2 = 0.9623 | 680.98
333.13 K, 10000 kPa, x2 = 0.5314 | 695.75
333.13 K, 10000 kPa, x2 = 0.9623 | 681.98
333.13 K, 10990 kPa, x2 = 0.5314 | 696.68
333.13 K, 10990 kPa, x2 = 0.9623 | 682.99
333.13 K, 12000 kPa, x2 = 0.5314 | 697.6
333.13 K, 12000 kPa, x2 = 0.9623 | 683.98
333.13 K, 13000 kPa, x2 = 0.5314 | 698.5
333.13 K, 13000 kPa, x2 = 0.9623 | 684.93
333.13 K, 14000 kPa, x2 = 0.5314 | 699.4
333.13 K, 14000 kPa, x2 = 0.9623 | 685.89
333.13 K, 15000 kPa, x2 = 0.5314 | 700.28
333.13 K, 15000 kPa, x2 = 0.9623 | 686.87
333.13 K, 16000 kPa, x2 = 0.5314 | 701.15
333.13 K, 16000 kPa, x2 = 0.9623 | 687.76
333.13 K, 17000 kPa, x2 = 0.5314 | 702
333.13 K, 17000 kPa, x2 = 0.9623 | 688.67
333.13 K, 18000 kPa, x2 = 0.5314 | 702.88
333.13 K, 18000 kPa, x2 = 0.9623 | 689.57
333.13 K, 19000 kPa, x2 = 0.5314 | 703.68
333.13 K, 19000 kPa, x2 = 0.9623 | 690.49
333.13 K, 20000 kPa, x2 = 0.5314 | 704.48
333.13 K, 20000 kPa, x2 = 0.9623 | 691.35
333.13 K, 21000 kPa, x2 = 0.5314 | 705.27
333.13 K, 21000 kPa, x2 = 0.9623 | 692.18
333.13 K, 22000 kPa, x2 = 0.5314 | 706.05
333.13 K, 22000 kPa, x2 = 0.9623 | 693
333.13 K, 23000 kPa, x2 = 0.5314 | 706.81
333.13 K, 23000 kPa, x2 = 0.9623 | 693.78
333.13 K, 24000 kPa, x2 = 0.5314 | 707.53
333.13 K, 24000 kPa, x2 = 0.9623 | 694.55
333.13 K, 25000 kPa, x2 = 0.5314 | 708.26
333.13 K, 25000 kPa, x2 = 0.9623 | 695.28
333.14 K, 1000 kPa, x2 = 0.7736 | 679.32
333.14 K, 2000 kPa, x2 = 0.7736 | 680.38
333.14 K, 3000 kPa, x2 = 0.7736 | 681.42
333.14 K, 4000 kPa, x2 = 0.7736 | 682.44
333.14 K, 5000 kPa, x2 = 0.7736 | 683.46
333.14 K, 6000 kPa, x2 = 0.7736 | 684.5
333.14 K, 7000 kPa, x2 = 0.7736 | 685.49
333.14 K, 8000 kPa, x2 = 0.7736 | 686.5
333.14 K, 9000 kPa, x2 = 0.7736 | 687.47
333.14 K, 10000 kPa, x2 = 0.7736 | 688.42
333.14 K, 10990 kPa, x2 = 0.7736 | 689.42
333.14 K, 12000 kPa, x2 = 0.7736 | 690.37
333.14 K, 13000 kPa, x2 = 0.7736 | 691.27
333.14 K, 14000 kPa, x2 = 0.7736 | 692.21
333.14 K, 15000 kPa, x2 = 0.7736 | 693.1
333.14 K, 16000 kPa, x2 = 0.7736 | 694.02
333.14 K, 17000 kPa, x2 = 0.7736 | 694.9
333.14 K, 18000 kPa, x2 = 0.7736 | 695.77
333.14 K, 19000 kPa, x2 = 0.7736 | 696.62
333.14 K, 20000 kPa, x2 = 0.7736 | 697.46
333.14 K, 21000 kPa, x2 = 0.7736 | 698.28
333.14 K, 22000 kPa, x2 = 0.7736 | 699.09
333.14 K, 23000 kPa, x2 = 0.7736 | 699.86
333.14 K, 24000 kPa, x2 = 0.7736 | 700.61
333.14 K, 25000 kPa, x2 = 0.7736 | 701.34

— the NIST ThermoML archive (doi:10.1016/j.jct.2011.08.016)
